# Results reported in patent publication US11384055B2 (BIOMARIN PHARMACEUTICAL INC., priority 2017, dated 2022).
# Molecular target: T1, Human GO (Homo sapiens, UniProt Q9UJM8)
# T1 construct: purchased Novus Biologicals NBP1-72412
# T1 sequence (Q9UJM8 1-370): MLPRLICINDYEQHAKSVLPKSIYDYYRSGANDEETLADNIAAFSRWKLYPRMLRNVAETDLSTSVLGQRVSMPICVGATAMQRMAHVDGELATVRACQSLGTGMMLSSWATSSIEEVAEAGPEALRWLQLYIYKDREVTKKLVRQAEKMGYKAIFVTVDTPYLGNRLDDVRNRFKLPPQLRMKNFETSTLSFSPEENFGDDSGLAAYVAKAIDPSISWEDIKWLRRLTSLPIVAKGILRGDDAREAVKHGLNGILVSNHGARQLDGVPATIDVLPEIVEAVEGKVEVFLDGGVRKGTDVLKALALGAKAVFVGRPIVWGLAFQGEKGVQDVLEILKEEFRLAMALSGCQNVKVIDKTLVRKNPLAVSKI
# Assay: GO enzymatic assay (coupled fluorescence/HRP assay, glycolate substrate)
# Type: biochemical
# Settings: Table 4; read-out: Range (range of IC50 values calculated from the enzymatic assays)
# In short: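 Coupled HRP/fluorescence read-out of glycolate oxidation by human GO in 50 mM potassium phosphate buffer (pH 7). Inhibitors added across a concentration range.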
row,SMILES,IC50 [nM]
1,"O=C(O)c1[nH]nnc1O[C@H]1CC[C@H](c2ccc(OCC3CCCCC3)cc2)CC1 [Example 460, 4-(((trans)-4-(4-(cyclohexylmethoxy)phenyl)cyclohexyl)oxy)-1H-1,2,3-triazole-5-carboxylic acid]",< 100
2,"O=C(O)c1[nH]nnc1SC1C[C@@H]2CC(c3ccc(OC(F)(F)F)cc3)C[C@@H]2C1 (stereo partly drawn) [Example 461, 4-(((cis-3a,6a)-5-(4-(trifluoromethoxy)phenyl)octahydropentalen-2-yl)thio)-1H-1,2,3-triazole-5-carboxylic acid]",< 100
3,"O=C(O)c1[nH]nnc1O[C@H]1CC[C@H](c2ccc(OCCC3CCCCC3)cc2)CC1 [Example 462, 4-(((trans)-4-(4-(2-cyclohexylethoxy)phenyl)cyclohexyl)oxy)-1H-1,2,3-triazole-5-carboxylic acid]",< 100
4,"O=C(O)c1[nH]nnc1O[C@H]1CC[C@H](c2ccc(OCCCO)cc2)CC1 [Example 463, 4-(((trans)-4-(4-(3-hydroxypropoxy)phenyl)cyclohexyl)oxy)-1H-1,2,3-triazole-5-carboxylic acid]",< 100
5,"CC(C)c1cc(-c2ccc([C@H]3CC[C@H](Oc4nn[nH]c4C(=O)O)CC3)cc2)[nH]n1 [Example 464, 4-(((trans)-4-(4-(3-isopropyl-1H-pyrazol-5-yl)phenyl)cyclohexyl)oxy)-1H-1,2,3-triazole-5-carboxylic acid 2,2,2-trifluoroacetate]",< 100
6,"CN(c1nn[nH]c1C(=O)O)[C@H]1CC[C@@H](c2ccc(OC(F)(F)F)cc2)CC1 [Example 465, 4-(methyl((cis)-4-(4-(trifluoromethoxy)phenyl)cyclohexyl)amino)-1H-1,2,3-triazole-5-carboxylic acid]",100 to 1000
7,"O=C(O)c1[nH]nnc1O[C@H]1CC[C@H](c2ccc(-c3ccn[nH]3)c(CO)c2)CC1 [Example 466, 4-(((trans)-4-(3-(hydroxymethyl)-4-(1H-pyrazol-5-yl)phenyl)cyclohexyl)oxy)-1H-1,2,3-triazole-5-carboxylic acid]",< 100
8,"O=C(O)c1[nH]nnc1O[C@H]1CC[C@@H](c2ccc(-c3ccn[nH]3)c(CO)c2)CC1 [Example 467, 4-(((cis)-4-(3-(hydroxymethyl)-4-(1H-pyrazol-5-yl)phenyl)cyclohexyl)oxy)-1H-1,2,3-triazole-5-carboxylic acid 2,2,2-trifluoroacetate]",< 100
9,"CN1CCN(c2ccc([C@H]3CC[C@H](Oc4nn[nH]c4C(=O)O)CC3)cc2)CC1 [Example 468, 4-(((trans)-4-(4-(4-methylpiperazin-1-yl)phenyl)cyclohexyl)oxy)-1H-1,2,3-triazole-5-carboxylic acid 2,2,2-trifluoroacetate]",< 100
10,"CC(C)(O)Cn1ccc(-c2ccc([C@H]3CC[C@H](Oc4nn[nH]c4C(=O)O)CC3)cc2)n1 [Example 469, 4-(((trans)-4-(4-(1-(2-hydroxy-2-methylpropyl)-1H-pyrazol-3-yl)phenyl)cyclohexyl)oxy)-1H-1,2,3-triazole-5-carboxylic acid 2,2,2-trifluoroacetate]",< 100
11,"O=C(O)c1[nH]nnc1O[C@H]1CC[C@H](c2ccc(-c3ccnn3CC3(O)CCCCC3)cc2)CC1 [Example 471, 4-(((trans)-4-(4-(1-((1-hydroxycyclohexyl)methyl)-1H-pyrazol-5-yl)phenyl)cyclohexyl)oxy)-1H-1,2,3-triazole-5-carboxylic acid 2,2,2-trifluoroacetate]",< 100
12,"NCCCOc1ccc([C@H]2CC[C@H](Oc3nn[nH]c3C(=O)O)CC2)cc1 [Example 472, 4-(((trans)-4-(4-(3-aminopropoxy)phenyl)cyclohexyl)oxy)-1H-1,2,3-triazole-5-carboxylic acid 2,2,2-trifluoroacetate]",< 100
13,"CCC(CC)c1cc(-c2ccc([C@H]3CC[C@H](Oc4nn[nH]c4C(=O)O)CC3)cc2)[nH]n1 [Example 473, 4-(((trans)-4-(4-(3-(pentan-3-yl)-1H-pyrazol-5-yl)phenyl)cyclohexyl)oxy)-1H-1,2,3-triazole-5-carboxylic acid]",< 100
14,"CNCCCOc1ccc([C@H]2CC[C@H](Oc3nn[nH]c3C(=O)O)CC2)cc1 [Example 474, 4-(((trans)-4-(4-(3-(methylamino)propoxy)phenyl)cyclohexyl)oxy)-1H-1,2,3-triazole-5-carboxylic acid 2,2,2-trifluoroacetate]",< 100
15,"CN(C)CCCOc1ccc([C@H]2CC[C@H](Oc3nn[nH]c3C(=O)O)CC2)cc1 [Example 478, 4-(((trans)-4-(4-(3-(dimethylamino)propoxy)phenyl)cyclohexyl)oxy)-1H-1,2,3-triazole-5-carboxylic acid 2,2,2-trifluoroacetate]",< 100
16,"CCC(O)(CC)Cn1nccc1-c1ccc([C@H]2CC[C@H](Oc3nn[nH]c3C(=O)O)CC2)cc1 [Example 479, 4-(((trans)-4-(4-(1-(2-ethyl-2-hydroxybutyl)-1H-pyrazol-5-yl)phenyl)cyclohexyl)oxy)-1H-1,2,3-triazole-5-carboxylic acid]",< 100
17,"CC(C)(O)Cn1nccc1-c1ccc([C@H]2CC[C@H](Oc3nn[nH]c3C(=O)O)CC2)cc1 [Example 480, 4-(((trans)-4-(4-(1-(2-hydroxy-2-methylpropyl)-1H-pyrazol-5-yl)phenyl)cyclohexyl)oxy)-1H-1,2,3-triazole-5-carboxylic acid]",< 100
18,"O=C(O)c1[nH]nnc1O[C@H]1CC[C@H](c2ccc(Cl)c(C3CCC3)c2)CC1 [Example 482, 4-(((trans)-4-(4-chloro-3-cyclobutylphenyl)cyclohexyl)oxy)-1H-1,2,3-triazole-5-carboxylic acid]",< 100
19,"O=C(O)c1[nH]nnc1O[C@H]1CC[C@H](c2ccc(OC(F)(F)F)c(C3CCC3)c2)CC1 [Example 484, 4-(((trans)-4-(3-cyclobutyl-4-(trifluoromethoxy)phenyl)cyclohexyl)oxy)-1H-1,2,3-triazole-5-carboxylic acid]",< 100
20,"COCCc1cc(-c2ccc([C@H]3CC[C@H](Oc4nn[nH]c4C(=O)O)CC3)cc2)[nH]n1 [Example 485, 4-(((trans)-4-(4-(3-(2-methoxyethyl)-1H-pyrazol-5-yl)phenyl)cyclohexyl)oxy)-1H-1,2,3-triazole-5-carboxylic acid 2,2,2-trifluoroacetate]",< 100
21,"O=C(O)c1[nH]nnc1CO[C@H]1CC[C@H](c2cc(Cl)cc(Cl)c2)CC1 [Example 486, 4-((((trans)-4-(3,5-dichlorophenyl)cyclohexyl)oxy)methyl)-1H-1,2,3-triazole-5-carboxylic acid]",< 100
